Results reported in US8912156B1, “Markers for and methods of targeting tumor stem cells” (Whitehead Institute for Biomedical Research, priority 2011, dated 2014).

Legend:
[1] = system: BPLER cells; assay: Mammosphere (tumorsphere) formation of BPLER cells after short-term drug treatment; type: cell-based, human; details: for BPLER cell capacity to form mammospheres (tumorsphere formation): 24 hours treatment, 24 hours recovery, 7 days drug-free sphere culture; for difference in response between BPLER and HMLER cells: BPLER vs HMLER
Protocol: (§1) Nor was any difference observed between BPLER and HMLER cells with paclitaxel or 5-fluorouracil (FIG. 3B). As noted above, tumorsphere formation capacity correlates with TSC subpopulations. With the tumorsphere assay employed, a single tumor cell can form a multicellular tumorsphere in suspension. To assess the short term effect of drug treatment, drugs were removed after treating the tumor cells in routine 2D culture conditions for 24 hours, and after a recovery period of 24 hours tumorsphere cultures were suspended in a medium free of drugs for 7 days.
(§2) BPLER and HMLER cells were maintained in WIT-T (Stemgent) and MGEM (Lonza) medium at 37° C. and 5% CO2. The remaining cell lines were grown in DMEM/F12 (Gibco) with 10% fetal bovine serum (FBS) at 37° C. and 5% CO2. The BPLER cells were grown on Primaria plasticware (BD Biosciences). The remaining cells were grown on standard plasticware (Falcon). The mammospheres were maintained in a 1:1 ratio of WIT-T/MEGM (less bovine pituitary extract) using 2% B27 (Invitrogen), 20 ng/ml EGF, 20 ng/ml bFGF (BD Biosciences), 4 ug/ml heparin (Sigma), and 0.5% methyl cellulose. Sphere formation experiments were carried out by plating 15,000-20,000 cells/well into 6-well ultra-low attachment plates (Corning). The cells were fed at days 1, 3, and 5, and spheres were counted at day 7.
(§3) Drug treatment experiments were performed in a 1:1 ratio of WIT-T/MEGM media. […] To evaluate the drug effect on 2D proliferation of BPLER and HMLER cells, the cells were plated at 125,000 cells/well in 6-well Primaria plates. Drug-containing media was added to each well after 24 hours. The cells were treated continuously for 4 days with drug-containing media changes each day. Cell number was counted with a hemocytometer after 4 days of treatment. To evaluate the drug effect on BPLER and HMLER cell mammosphere formation, cells were plated at 50% confluence in Primaria flasks. After 24 hours, drug-containing media was added to each flask. After 24 hours of treatment with the drug-containing media, the cells recovered for 24 hours in a drug-free media. Cells were then plated for the mammosphere protocol as described previously.

[2] = system: BPLER cells; type: cell-based, human; details: only when the drugs were present
Protocol: as §2
as §3, with “After 24 hours, drug-containing media was added to each flask. After 24 hours of treatment with the drug-containing media, the cells recovered for 24 hours in a drug-free media. Cells were then plated for the mammosphere protocol as described previously.” left out

[3] = system: HMLER cells; assay: Drug effect on 2D proliferation of HMLER cells; type: cell-based, human; details: only when the drugs were present
Protocol: as §2
as §3, with “After 24 hours, drug-containing media was added to each flask. After 24 hours of treatment with the drug-containing media, the cells recovered for 24 hours in a drug-free media. Cells were then plated for the mammosphere protocol as described previously.” left out

[4] = system: HMLER cells; assay: Mammosphere (tumorsphere) formation of HMLER cells after short-term drug treatment; type: cell-based, human; details: 24 hours treatment, 24 hours recovery, 7 days drug-free sphere culture
Protocol: as §1, §2
as §3, with “Cells were then plated for the mammosphere protocol as described previously.” left out

[5] = system: other Class I and Class II HDACs; details: TSA treatment of breast tumor cells; cited from earlier work

SMILES	BPLER cell capacity to form mammospheres (tumorsphere formation) [1]	difference in response between BPLER and HMLER cells [1]	cytotoxic effect on BPLER cells [2]	cytotoxic effect on HMLER cells [3]	HMLER cell capacity to form mammospheres (tumorsphere formation) [4]	changes in expression of other Class I and Class II HDACs [5]
O=c1[nH]cc(F)c(=O)[nH]1 [5-fluorouracil]	not inhibited	no difference	cytotoxic effect	cytotoxic effect	not inhibited	
CC(/C=C/C(=O)NO)=C\[C@@H](C)C(=O)c1ccc(N(C)C)cc1 [TSA, trichostatin A]	significantly decreased				did not affect	less than 2 fold
CC(=O)O[C@H]1C(=O)[C@@]2(C)[C@H]([C@H](OC(=O)c3ccccc3)[C@]3(O)C[C@H](OC(=O)[C@H](O)[C@@H](NC(=O)c4ccccc4)c4ccccc4)C(C)=C1C3(C)C)[C@]1(OC(C)=O)CO[C@@H]1C[C@@H]2O [paclitaxel]	not inhibited	no difference	cytotoxic effect	cytotoxic effect	not inhibited	
